Results as given in ChEMBL document CHEMBL1159252, “Flavonoid inhibitors of trypsin and leucine aminopeptidase: a proposed mathematical model for IC50 estimation” (J Nat Prod, 1995).

How the values were obtained:
Cytosol aminopeptidase = biological target: T1, Cytosol aminopeptidase (Sus scrofa, UniProt P28839); experiment: Inhibition of pig kidney cytosolic Leucyl aminopeptidase
T1 sequence (P28839 whole entry): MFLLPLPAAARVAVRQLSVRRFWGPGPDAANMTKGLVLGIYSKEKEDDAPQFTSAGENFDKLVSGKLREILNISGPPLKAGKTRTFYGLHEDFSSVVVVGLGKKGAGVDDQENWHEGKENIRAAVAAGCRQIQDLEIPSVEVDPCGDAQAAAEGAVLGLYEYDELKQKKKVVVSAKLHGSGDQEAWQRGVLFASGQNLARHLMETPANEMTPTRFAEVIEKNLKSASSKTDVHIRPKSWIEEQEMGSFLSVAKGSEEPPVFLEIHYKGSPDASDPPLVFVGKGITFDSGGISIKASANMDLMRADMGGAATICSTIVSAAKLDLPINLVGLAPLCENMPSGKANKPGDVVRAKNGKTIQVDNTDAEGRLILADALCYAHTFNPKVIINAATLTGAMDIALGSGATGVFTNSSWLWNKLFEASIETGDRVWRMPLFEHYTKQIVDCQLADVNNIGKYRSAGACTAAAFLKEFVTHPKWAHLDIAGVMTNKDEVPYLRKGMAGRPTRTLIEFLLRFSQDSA

[1] = Inhibition of bovine pancreas trypsin; parameters: species or system Bos taurus

| IC50 [1] [µM] | Compound | IC50 (Cytosol aminopeptidase) [µM] |
| --- | --- | --- |
| – | O=c1cc(-c2ccc(O)c(O)c2)oc2ccccc12 | 35.1 |
| 142 | O=c1cc(-c2ccc(O)cc2)oc2cc(O)cc(O)c12 [APIGENIN] | – |
| 106 | O=c1c(O)c(-c2ccc(O)cc2)oc2cc(O)cc(O)c12 [KAEMPFEROL] | – |
| 111 | O=c1c(O)c(-c2ccc(O)cc2O)oc2cc(O)cc(O)c12 [MORIN] | – |
| 10.2 | O=c1c(O)c(-c2cc(O)c(O)c(O)c2)oc2cc(O)cc(O)c12 [MYRICETIN] | – |
| 144 | COc1cc(C2Oc3c(O)cc([C@H]4Oc5cc(O)cc(O)c5C(=O)[C@@H]4O)cc3C2CO)ccc1O (stereo not given in full) [SILICRISTIN] | – |

| Compound | IC50 [1] [µM] | IC50 (Cytosol aminopeptidase) [µM] |
| --- | --- | --- |
| O=c1cc(-c2ccc(O)c(O)c2)oc2cc(O)cc(O)c12 [LUTEOLIN] | 35.3 | 49.6 |
| O=c1c(O)c(-c2ccc(O)c(O)c2)oc2cc(O)cc(O)c12 [QUERCETIN] | 7.1 | 34.3 |
